BindingDB's records for patent US20250304587 (Jiangsu Tasly Diyi Pharmaceutical, 2025)

Target: Cytochrome P450 2C19 (Homo sapiens, UniProt P33261)
Experiment: Evaluation of Compound Inhibition of Cytochrome P450
Description: Enzymatic experiments were performed to quantify the inhibition of CYP450 enzyme activity of each isoform of CYP450 by small molecule inhibitors through fluorescence generated by the oxidation of the substrate by cytochrome P450. […] The Solution B composition used for the experiment was: 40 U/mL G6PDH (Sigma-aldrich, Cat #G6378). The substrate mix was 0.05× Solution A, 0.01× Solution B, 50 mM Potassium Phosphate, 0.01 mM BOMCC/0.01 mM EOMCC/0.001 mM DBOMF.

Chain of Cytochrome P450 2C19 (P33261 whole entry): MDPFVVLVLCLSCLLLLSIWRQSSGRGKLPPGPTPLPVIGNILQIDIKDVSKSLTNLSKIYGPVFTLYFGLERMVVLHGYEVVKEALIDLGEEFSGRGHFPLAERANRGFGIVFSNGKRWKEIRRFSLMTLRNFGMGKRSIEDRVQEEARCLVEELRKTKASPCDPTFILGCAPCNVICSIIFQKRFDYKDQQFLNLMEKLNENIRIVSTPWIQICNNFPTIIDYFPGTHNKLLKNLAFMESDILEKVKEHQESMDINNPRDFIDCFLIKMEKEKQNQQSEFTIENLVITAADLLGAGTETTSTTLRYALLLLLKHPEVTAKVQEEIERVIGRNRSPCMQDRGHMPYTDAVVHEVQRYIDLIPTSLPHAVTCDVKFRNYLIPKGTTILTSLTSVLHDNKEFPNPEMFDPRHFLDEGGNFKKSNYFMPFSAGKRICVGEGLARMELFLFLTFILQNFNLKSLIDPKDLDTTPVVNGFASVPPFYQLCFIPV

Compound | IC50 [µM]
C=CCn1c(=O)c2cnc(Nc3ccc(N4CCC5(CCN(C)CC5)CC4)cc3)nc2n1-c1ccc2c(n1)[C@](C)(O)C1(CC2)CC1 (racemic) [US20250304587, Compound 44] | 1 to 10
C=CCn1c(=O)c2cnc(Nc3ccc(N4CC5CC(C4)N5C)cc3)nc2n1-c1ccc2c(n1)[C@@](C)(O)C1(CC2)CC1 [US20250304587, Compound 7a] | 1 to 10
